Test results taken from PubChem BioAssay (NCI).
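Method: 48-hour compound exposure of cells in 96-well plates, five concentrations, linear interpolation of endpoints. At the GI50, growth is halved. TGI: total growth inhibition.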

Key:
Experiment in all cases: NCI tumour cell line growth inhibition, 48 h
OVCAR-5 ovarian = tested on: OVCAR-5 ovarian
SK-MEL-2 melanoma = tested on: SK-MEL-2 melanoma
ACHN renal = tested on: ACHN renal
IGROV1 ovarian = tested on: IGROV1 ovarian
CCRF-CEM leukemia = tested on: CCRF-CEM leukemia
NCI-H226 lung = tested on: NCI-H226 lung
CAKI-1 renal = tested on: CAKI-1 renal
TK-10 renal = tested on: TK-10 renal
HT29 colon = tested on: HT29 colon
HOP-92 NSCLC = tested on: HOP-92 NSCLC
LOX IMVI melanoma = tested on: LOX IMVI melanoma
MALME-3M melanoma = tested on: MALME-3M melanoma
K-562 leukemia = tested on: K-562 leukemia
SK-MEL-28 melanoma = tested on: SK-MEL-28 melanoma
HCT-15 colon = tested on: HCT-15 colon
HS 578T breast = tested on: HS 578T breast
NCI-H23 lung = tested on: NCI-H23 lung
SF-268 CNS = tested on: SF-268 CNS
EKVX NSCLC = tested on: EKVX NSCLC
RXF 393 renal = tested on: RXF 393 renal
RPMI-8226 leukemia = tested on: RPMI-8226 leukemia
BT-549 breast = tested on: BT-549 breast
SNB-19 CNS = tested on: SNB-19 CNS
MDA-MB-435 = tested on: MDA-MB-435
MDA-MB-231 breast = tested on: MDA-MB-231 breast
DU-145 prostate = tested on: DU-145 prostate
NCI-H522 lung = tested on: NCI-H522 lung
UACC-257 melanoma = tested on: UACC-257 melanoma
KM12 colon = tested on: KM12 colon
NCI-H460 lung = tested on: NCI-H460 lung
SF-539 CNS = tested on: SF-539 CNS
MCF7 breast = tested on: MCF7 breast
SNB-75 CNS = tested on: SNB-75 CNS
UACC-62 melanoma = tested on: UACC-62 melanoma
SK-MEL-5 melanoma = tested on: SK-MEL-5 melanoma
U251 CNS = tested on: U251 CNS
HCC-2998 colon = tested on: HCC-2998 colon
PC-3 prostate = tested on: PC-3 prostate
A549 NSCLC = tested on: A549 NSCLC
SK-OV-3 ovarian = tested on: SK-OV-3 ovarian
A498 renal = tested on: A498 renal
UO-31 renal = tested on: UO-31 renal
SF-295 CNS = tested on: SF-295 CNS
MDA-MB-468 breast = tested on: MDA-MB-468 breast
OVCAR-3 ovarian = tested on: OVCAR-3 ovarian
M14 melanoma = tested on: M14 melanoma
OVCAR-4 ovarian = tested on: OVCAR-4 ovarian
SR leukemia = tested on: SR leukemia
MOLT-4 leukemia = tested on: MOLT-4 leukemia
HL-60(TB) leukemia = tested on: HL-60(TB) leukemia
SN12C renal = tested on: SN12C renal
786-0 renal = tested on: 786-0 renal
HOP-62 NSCLC = tested on: HOP-62 NSCLC
T-47D breast = tested on: T-47D breast
OVCAR-8 ovarian = tested on: OVCAR-8 ovarian
COLO 205 colon = tested on: COLO 205 colon

Compound: C=C1CCC2C3(C)COC(c4ccccc4F)OC3CCC2(C)C1C/C=C1/C(=O)OCC1O (configuration not stated)
- GI50 (OVCAR-5 ovarian): 2470 nM
- TGI (OVCAR-5 ovarian): 5.78 µM
- GI50 (SK-MEL-2 melanoma): 2670 nM
- TGI (SK-MEL-2 melanoma): 7.79 µM
- GI50 (ACHN renal): 1850 nM
- TGI (ACHN renal): 3.34 µM
- GI50 (IGROV1 ovarian): 5.66 µM
- TGI (IGROV1 ovarian): 19.7 µM
- GI50 (CCRF-CEM leukemia): 1810 nM
- TGI (CCRF-CEM leukemia): 6.53 µM
- GI50 (NCI-H226 lung): 1670 nM
- TGI (NCI-H226 lung): 3.3 µM
- GI50 (CAKI-1 renal): 3.84 µM
- TGI (CAKI-1 renal): 13.3 µM
- GI50 (TK-10 renal): 8.18 µM
- TGI (TK-10 renal): 22.2 µM
- GI50 (HT29 colon): 1900 nM
- TGI (HT29 colon): 3.85 µM
- GI50 (HOP-92 NSCLC): 3.65 µM
- TGI (HOP-92 NSCLC): 14.6 µM
- GI50 (LOX IMVI melanoma): 1570 nM
- TGI (LOX IMVI melanoma): 2920 nM
- GI50 (MALME-3M melanoma): 7.35 µM
- TGI (MALME-3M melanoma): 21.8 µM
- GI50 (K-562 leukemia): 3.04 µM
- TGI (K-562 leukemia): > 100 µM
- GI50 (SK-MEL-28 melanoma): 2920 nM
- TGI (SK-MEL-28 melanoma): 7.63 µM
- GI50 (HCT-15 colon): 1850 nM
- TGI (HCT-15 colon): 4.52 µM
- GI50 (HS 578T breast): 4.4 µM
- TGI (HS 578T breast): 47.9 µM
- GI50 (NCI-H23 lung): 10.8 µM
- TGI (NCI-H23 lung): 26 µM
- GI50 (SF-268 CNS): 3.85 µM
- TGI (SF-268 CNS): 16.4 µM
- GI50 (EKVX NSCLC): 15.4 µM
- TGI (EKVX NSCLC): 30.3 µM
- GI50 (RXF 393 renal): 3 µM
- TGI (RXF 393 renal): 12.2 µM
- GI50 (RPMI-8226 leukemia): 2600 nM
- TGI (RPMI-8226 leukemia): 7.35 µM
- GI50 (BT-549 breast): 2600 nM
- TGI (BT-549 breast): 5.76 µM
- GI50 (SNB-19 CNS): 11.5 µM
- TGI (SNB-19 CNS): 26.8 µM
- GI50 (MDA-MB-435): 2250 nM
- TGI (MDA-MB-435): 5.79 µM
- GI50 (MDA-MB-231 breast): 2410 nM
- TGI (MDA-MB-231 breast): 5.41 µM
- GI50 (DU-145 prostate): 4.09 µM
- TGI (DU-145 prostate): 15.1 µM
- GI50 (NCI-H522 lung): 1570 nM
- TGI (NCI-H522 lung): 3.12 µM
- GI50 (UACC-257 melanoma): 2360 nM
- TGI (UACC-257 melanoma): 13.2 µM
- GI50 (KM12 colon): 2990 nM
- TGI (KM12 colon): 10.3 µM
- GI50 (NCI-H460 lung): 3.36 µM
- TGI (NCI-H460 lung): > 100 µM
- GI50 (SF-539 CNS): 1940 nM
- TGI (SF-539 CNS): 3.52 µM
- GI50 (MCF7 breast): 1830 nM
- TGI (MCF7 breast): 5.45 µM
- GI50 (SNB-75 CNS): 2820 nM
- TGI (SNB-75 CNS): 12.8 µM
- GI50 (UACC-62 melanoma): 3.17 µM
- TGI (UACC-62 melanoma): 12.1 µM
- GI50 (SK-MEL-5 melanoma): 5.67 µM
- TGI (SK-MEL-5 melanoma): 18.2 µM
- GI50 (U251 CNS): 1960 nM
- TGI (U251 CNS): 3.97 µM
- GI50 (HCC-2998 colon): 5.12 µM
- TGI (HCC-2998 colon): 17.8 µM
- GI50 (PC-3 prostate): 3.45 µM
- TGI (PC-3 prostate): 14.6 µM
- GI50 (A549 NSCLC): 4.4 µM
- TGI (A549 NSCLC): 94 µM
- GI50 (SK-OV-3 ovarian): 18.6 µM
- TGI (SK-OV-3 ovarian): 35.4 µM
- GI50 (A498 renal): 20.1 µM
- TGI (A498 renal): 37.3 µM
- GI50 (UO-31 renal): 1970 nM
- TGI (UO-31 renal): 5.54 µM
- GI50 (SF-295 CNS): 2130 nM
- TGI (SF-295 CNS): 5.24 µM
- GI50 (MDA-MB-468 breast): 1620 nM
- TGI (MDA-MB-468 breast): 3.63 µM
- GI50 (OVCAR-3 ovarian): 1800 nM
- TGI (OVCAR-3 ovarian): 3.7 µM
- GI50 (M14 melanoma): 4.24 µM
- TGI (M14 melanoma): 19.2 µM
- GI50 (OVCAR-4 ovarian): 2450 nM
- TGI (OVCAR-4 ovarian): 7.65 µM
- GI50 (SR leukemia): 2500 nM
- TGI (SR leukemia): 19.9 µM
- GI50 (MOLT-4 leukemia): 3.31 µM
- TGI (MOLT-4 leukemia): 17.2 µM
- GI50 (HL-60(TB) leukemia): 1650 nM
- TGI (HL-60(TB) leukemia): 5.48 µM
- GI50 (SN12C renal): 1990 nM
- TGI (SN12C renal): 4.49 µM
- GI50 (786-0 renal): 2020 nM
- TGI (786-0 renal): 3.69 µM
- GI50 (HOP-62 NSCLC): 15.8 µM
- TGI (HOP-62 NSCLC): 35.1 µM
- GI50 (T-47D breast): 3.76 µM
- TGI (T-47D breast): 16.9 µM
- GI50 (OVCAR-8 ovarian): 1980 nM
- TGI (OVCAR-8 ovarian): 5.53 µM
- GI50 (COLO 205 colon): 2960 nM
- TGI (COLO 205 colon): 8.38 µM
